# Measurements taken from patent US3960845A, “Process for preparing 7β-acylamino-7α-alkoxycephalosporins or 6β-acylamino-6α-alkoxypenicillins” (Sankyo Company Limited, priority 1974, dated 1976).
# Like-named read-outs stand apart in the source and are kept apart here.
# Assays:
# Format in all cases: cell-based
# [1] = system: Shigella flexneri Komagome; assay: Minimal inhibitory concentration; settings: III: Shigella flexneri Komagome; for MIC: read-out: Minimal inhibitory concentration
# Text: (§1) Minimal inhibitory concentrations of various microorganisms mcg/ml
# III Shigella flexneri Komagome
# Klebsiella neumoniae 806 = assay: Minimal inhibitory concentration; settings: IV A: Klebsiella neumoniae 806; for MIC: read-out: Minimal inhibitory concentration
# Text: as §1
# IV A Klebsiella neumoniae 806
# [2] = system: Salmonella enteritidis Gaertner; assay: Minimal inhibitory concentration; settings: VI: Salmonella enteritidis Gaertner; for MIC: Salmonella enterica, read-out: Minimal inhibitory concentration
# Text: as §1
# VI Salmonella enteritidis Gaertner
# [3] = system: broad pathogenic microorganisms; assay: antimicrobial activity; settings: result in words
# [4] = system: Klebsiella neumoniae 846 (CER resistant); assay: Minimal inhibitory concentration; settings: IV B: Klebsiella neumoniae 846 (CER resistant)
# Text: as §1
# IV B Klebsiella neumoniae 846 (CER resistant)
# Proteus vulgaris = assay: Minimal inhibitory concentration; settings: for MIC: read-out: Minimal inhibitory concentration
# Text: as §1
# E. coli NIHJ = assay: Minimal inhibitory concentration; settings: II A: E. coli NIHJ; for MIC: Escherichia coli
# Text: as §1
# [5] = system: E. coli 609 (CER resistant); assay: Minimal inhibitory concentration; settings: II B: E. coli 609 (CER resistant); for MIC: Escherichia coli, read-out: Minimal inhibitory concentration
# Text: as §1
# II B E. coli 609 (CER resistant)
# [6] = system: Staphylococcus aureus 209p; assay: Minimal inhibitory concentration; settings: I A: Staphylococcus aureus 209p; for MIC: read-out: Minimal inhibitory concentration
# Text: as §1
# 1 A Staphylococcus aureus 209p
# [7] = system: Staphylococcus aureus (CP and PC resistant); assay: Minimal inhibitory concentration; settings: I B: Staphylococcus aureus (CP and PC resistant)
# Text: as §1
# 1 B Staphylococcus aureus
Structure (SMILES),Minimal inhibitory concentration [1],Minimal inhibitory concentration (Klebsiella neumoniae 806),Minimal inhibitory concentration [2],antimicrobial activity against broad pathogenic microorganisms [3],Minimal inhibitory concentration [4],Minimal inhibitory concentration (Proteus vulgaris; V: Proteus vulgaris),Minimal inhibitory concentration (E. coli NIHJ),Minimal inhibitory concentration [5],Minimal inhibitory concentration [6],Minimal inhibitory concentration [7],MIC [1],MIC (Klebsiella neumoniae 806),MIC [2],MIC [4],MIC (Proteus vulgaris; Proteus vulgaris),MIC (E. coli NIHJ),MIC [5],MIC [6],MIC [7],MIC (Proteus vulgaris; V: Proteus vulgaris)
CO[C@@]1(NC(=O)COc2ccon2)C(=O)N2C(C(=O)O)=C(CSc3nnnn3C)CS[C@@H]21 [7β-(3-isoxazolyloxy)acetamido-7α-methoxy-3-(1-methyl-1H-tetrazol-5-yl)thiomethyl-3-cephem-4-carboxylic acid],3.1 µg/mL,3.1 µg/mL,1.5 µg/mL,excellent antimicrobial activity,> 400 µg/mL,6.2 µg/mL,3.1 µg/mL,3.1 µg/mL,0.2 µg/mL,0.8 µg/mL,–,–,–,–,–,–,–,–,–,–
CO[C@@]1(NC(=O)COc2ccon2)C(=O)N2C(C(=O)O)=C(COC(C)=O)CS[C@@H]21 [7β-(3-isoxazolyloxy)acetamido-7α-methoxy-3-acetoxymethyl-3-cephem-4-carboxylic acid],–,–,–,excellent antimicrobial activity,–,–,–,–,–,–,12.5 µg/mL,6.2 µg/mL,3.1 µg/mL,> 400 µg/mL,12.5 µg/mL,6.2 µg/mL,6.2 µg/mL,≤ 0.1 µg/mL,0.8 µg/mL,–
"CO[C@@]1(NC(=O)CSc2nnc(C)s2)C(=O)N2C(C(=O)O)=C(CSc3nnnn3C)CS[C@@H]21 [7β-(5-methyl-1,3,4-thiadiazol-2-yl)thioacetamido-7α-methoxy-3-(1-methyl-1H-tetrazol-5-yl)thiomethyl-3-cephem-4-carboxylic acid]",–,–,–,excellent antimicrobial activity,–,–,–,–,–,–,6.2 µg/mL,12.5 µg/mL,1.5 µg/mL,400 µg/mL,–,12.5 µg/mL,12.5 µg/mL,0.4 µg/mL,1.5 µg/mL,3.1 µg/mL
"CO[C@@]1(NC(=O)CSc2nnc(C)s2)C(=O)N2C(C(=O)O)=C(COC(N)=O)CS[C@@H]21 [7β-(5-methyl-1,3,4-thiadiazol-2-yl)thioacetamido-7α-methoxy-3-carbamoyloxymethyl-3-cephem-4-carboxylic acid]",–,–,–,excellent antimicrobial activity,–,–,–,–,–,–,12.5 µg/mL,6.2 µg/mL,3.1 µg/mL,> 200 µg/mL,–,6.2 µg/mL,6.2 µg/mL,0.8 µg/mL,3.1 µg/mL,6.2 µg/mL
CO[C@@]1(NC(=O)CSc2ncc[nH]2)C(=O)N2C(C(=O)O)=C(CSc3nnnn3C)CS[C@@H]21 [7β-(imidazol-2-yl)thioacetamido-7α-methoxy-3-(1-methyl-1H-tetrazol-5-yl)thiomethyl-3-cephem-4-carboxylic acid],–,–,–,excellent antimicrobial activity,–,–,–,–,–,–,6.2 µg/mL,6.2 µg/mL,3.1 µg/mL,> 200 µg/mL,–,6.2 µg/mL,6.2 µg/mL,0.8 µg/mL,3.1 µg/mL,12.5 µg/mL
CO[C@@]1(NC(=O)CSc2ncc[nH]2)C(=O)N2C(C(=O)O)=C(COC(C)=O)CS[C@@H]21 [7β-(imidazol-2-yl)thioacetamido-7α-methoxy-3-acetoxymethyl-3-cephem-4-carboxylic acid],–,–,–,excellent antimicrobial activity,–,–,–,–,–,–,25 µg/mL,12.5 µg/mL,6.2 µg/mL,> 400 µg/mL,–,12.5 µg/mL,25 µg/mL,1.5 µg/mL,6.2 µg/mL,25 µg/mL
CO[C@@]1(NC(=O)CSc2ncc[nH]2)C(=O)N2C(C(=O)O)=C(COC(N)=O)CS[C@@H]21 [7β-(imidazol-2-yl)thioacetamido-7α-methoxy-3-carbamoyloxymethyl-3-cephem-4-carboxylic acid],–,–,–,excellent antimicrobial activity,–,–,–,–,–,–,3.1 µg/mL,3.1 µg/mL,1.5 µg/mL,> 200 µg/mL,–,1.5 µg/mL,3.1 µg/mL,≤ 0.1 µg/mL,0.8 µg/mL,6.2 µg/mL
CO[C@@]1(NC(=O)CSCN=[N+]=[N-])C(=O)N2C(C(=O)O)=C(COC(C)=O)CS[C@@H]21 [7β-azidomethylthioacetamido-7α-methoxy-3-acetoxymethyl-3-cephem-4-carboxylic acid],–,–,–,excellent antimicrobial activity,–,–,–,–,–,–,6.2 µg/mL,6.2 µg/mL,1.5 µg/mL,> 200 µg/mL,–,6.2 µg/mL,6.2 µg/mL,0.4 µg/mL,0.8 µg/mL,3.1 µg/mL
CO[C@@]1(NC(=O)CSCC#N)C(=O)N2C(C(=O)O)=C(COC(C)=O)CS[C@@H]21 [7β-cyanomethylthioacetamido-7α-methoxy-3-acetoxymethyl-3-cephem-4-carboxylic acid],–,–,–,excellent antimicrobial activity,–,–,–,–,–,–,3.1 µg/mL,1.5 µg/mL,0.8 µg/mL,> 400 µg/mL,–,1.5 µg/mL,1.5 µg/mL,0.2 µg/mL,0.8 µg/mL,6.2 µg/mL
CO[C@@]1(NC(=O)CSCC#N)C(=O)N2C(C(=O)O)=C(COC(N)=O)CS[C@@H]21 [7β-cyanomethylthioacetamido-7α-methoxy-3-carbamoyloxymethyl-3-cephem-4-carboxylic acid],–,–,–,excellent antimicrobial activity,–,–,–,–,–,–,3.1 µg/mL,0.4 µg/mL,0.4 µg/mL,> 400 µg/mL,–,1.5 µg/mL,0.8 µg/mL,0.8 µg/mL,1.5 µg/mL,6.2 µg/mL
CO[C@@]1(NC(=O)CS(C)(=O)=O)C(=O)N2C(C(=O)O)=C(CSc3nnnn3C)CS[C@@H]21 [7β-methylsulfonylacetamido-7α-methoxy-3-(1-methyl-1H-tetrazole-5-yl)thiomethyl-3-cephem-4-carboxylic acid],–,–,–,excellent antimicrobial activity,–,–,–,–,–,–,1.5 µg/mL,0.8 µg/mL,0.4 µg/mL,400 µg/mL,–,1.5 µg/mL,1.5 µg/mL,0.8 µg/mL,3.1 µg/mL,12.5 µg/mL
C#CCSCC(=O)N[C@]1(OC)C(=O)N2C(C(=O)O)=C(CSc3nnnn3C)CS[C@@H]21 [7β-propargylthioacetamido-7α-methoxy-3-(1-methyl-1H-tetrazol-5-yl)thiomethyl-3-cephem-4-carboxylic acid],–,–,–,excellent antimicrobial activity,–,–,–,–,–,–,3.1 µg/mL,3.1 µg/mL,0.8 µg/mL,400 µg/mL,–,3.1 µg/mL,3.1 µg/mL,0.2 µg/mL,0.8 µg/mL,3.1 µg/mL
C#CCSCC(=O)N[C@]1(OC)C(=O)N2C(C(=O)O)=C(COC(C)=O)CS[C@@H]21 [7β-propargylthioacetamido-7α-methoxy-3-acetoxymethyl-3-cephem-4-carboxylic acid],–,–,–,excellent antimicrobial activity,–,–,–,–,–,–,6.2 µg/mL,6.2 µg/mL,1.5 µg/mL,> 400 µg/mL,–,3.1 µg/mL,6.2 µg/mL,0.8 µg/mL,3.1 µg/mL,6.2 µg/mL
